Results: paper PMC8694002 (RSC Advances, 2021)
Like-named read-outs stand apart in the source and are kept apart here.

Legend:
PTP1B (1–321) = target: T1, PTP1B (1–321) (Homo sapiens, UniProt P18031); experiment: PTP1B inhibition assay with DiFMUP as substrate
T1 sequence (P18031 1-321): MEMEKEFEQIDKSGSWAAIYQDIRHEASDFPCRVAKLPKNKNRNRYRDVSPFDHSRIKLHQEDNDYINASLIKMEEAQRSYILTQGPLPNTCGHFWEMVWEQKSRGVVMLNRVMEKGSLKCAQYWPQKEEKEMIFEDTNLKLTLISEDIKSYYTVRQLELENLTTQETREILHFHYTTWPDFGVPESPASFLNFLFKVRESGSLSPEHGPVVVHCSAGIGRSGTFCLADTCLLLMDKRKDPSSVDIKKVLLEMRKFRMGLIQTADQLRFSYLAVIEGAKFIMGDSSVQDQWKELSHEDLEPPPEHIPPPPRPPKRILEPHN

TCPTP (13–358) = target: T2, TCPTP (13–358) (Homo sapiens, UniProt P17706); experiment: TCPTP inhibition assay with DiFMUP as substrate; format: biochemical; settings: read-out: IC50 TCPTP; means ± SD of three replications
T2 sequence (P17706 13-358): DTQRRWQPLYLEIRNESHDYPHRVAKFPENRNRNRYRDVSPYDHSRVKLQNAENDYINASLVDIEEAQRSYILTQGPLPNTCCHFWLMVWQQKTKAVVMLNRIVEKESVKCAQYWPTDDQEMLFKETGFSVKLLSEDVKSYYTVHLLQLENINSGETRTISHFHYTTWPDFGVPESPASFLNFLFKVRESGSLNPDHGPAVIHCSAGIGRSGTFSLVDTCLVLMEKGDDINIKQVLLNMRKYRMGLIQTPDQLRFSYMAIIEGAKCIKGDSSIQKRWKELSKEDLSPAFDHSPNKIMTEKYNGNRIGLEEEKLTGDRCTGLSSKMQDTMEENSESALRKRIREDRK

IC50 (PTP1B (1–321); PTP1B, Table 3, means ± SD of three replications): 26.2 ± 8.58 µM | IC50 (PTP1B (1–321); read-out: IC50 PTP1B, means ± SD of three replications): 26.2 ± 8.58 µM | IC50 (TCPTP (13–358)): 71.9 ± 3.87 µM
SMILES: O=S(=O)(O)c1ccc2cc(N=Nc3cc(S(=O)(=O)O)c4cccnc4c3O)ccc2c1 [NSC-87877]
